According to article PMC7308888, “Development of a cell-free split-luciferase biochemical assay as a tool for screening for inhibitors of challenging protein-protein interaction targets” (Wellcome Open Research, 2020):

Target: T1, KRAS-G12C (Homo sapiens, UniProt P01116, G12C)
T1 construct: full-length KRAS-G12C, Sm-BiT fused at the N-terminus; with p110α RBD (aa133-314), LgBiT fusion
Test: NanoBiT split-luciferase KRAS/RBDα interaction assay in HEK293 cell lysate
Format: biochemical

- NanoBiT split-luciferase KRAS/RBDα interaction assay in HEK293 cell lysate: ~ 1 µM
Structure (SMILES): Cn1cnc(Cn2ccc3ccc(CNCc4[nH]c5ccccc5c4[C@H]4NC(=O)c5ccc(O)cc54)cc32)c1 [BI-2852]
